Experimental data published in patent US10034913B2, “Anti-angiogenic peptides and uses thereof” (Health Research, Inc., priority 2011, dated 2018).
Bridges are numbered along the chain shown (N, C = ends). Where no end group is shown, it is not given here.

Tests used:
PSA = target: T1, PSA (Homo sapiens, UniProt P07288); experiment: Inhibition of PSA enzymatic activity by zinc; assay type: biochemical
T1 construct: The 237 amino acid protein (25-261) were used in the studies that include PSA as described herein; from tissue; host or cells: human seminal plasma (f-PSA); human prostate cancer tissue specimens (T-PSA)
Experimental: (§1) Hydrolysis of the fluorogenic substrate was quantitated using a LS-45 Luminescence Spectrometer from Perkin Elmer) using the FL-Winlab® program. Human prostate cancer tissue specimens were obtained from the Pathology Resource Network at Roswell Park Cancer Institute under an IRB approved protocol.
(§2) Enzymatically active PSA, and PSA inactivated by incubation with Zinc^2+ [activity inhibited>75% by 5.0 μM of Zinc, inset FIG. 4] were compared for their respective effects on expression of genes involved in angiogenesis/vasculogenesis in HUVEC cells.

[1] = test system: FAK gene expression in HUVEC; experiment: FAK gene expression in HUVEC, Real-time QPCR; assay type: cell-based, human; settings: 10 uM, average of three experiments
Experimental: FIG. 16 is a graphical representation of data showing modulation of FAK gene expression in HUVEC by f-PSA and PSA-P3L. To produce the results summarized in FIG. 16, nearly confluent monolayers of HUVEC were treated with 10 uM of f-PSA or PSA-P3L; RNA extracted and reverse transcribed. The c-DNA was amplified by Real-time QPCR using specific primers. The results shown are the average of three experiments. […] The other experimental details are similar to all gene expression studies. Thus, in one embodiment, the invention provides a method for inhibiting FAK gene expression in human endothelial cells comprising contacting the cells with one or more peptides of the invention.

[2] = test system: VEGF gene expression in HUVEC; experiment: VEGF gene expression in HUVEC, Real-time QPCR; assay type: cell-based, human; settings: 10 uM, average of three experiments
Experimental: FIG. 17 is a graphical representation of data showing modulation of VEGF gene expression in HUVEC by f-PSA, PSA-P3L and PSA-P3C. To produce the results summarized in FIG. 17, nearly confluent monolayers of HUVEC were treated with 10 uM of f-PSA or PSA-P3L; RNA extracted and reverse transcribed. The c-DNA was amplified by Real-time QPCR using specific primers. The results shown are average of three experiments. […] The data represents an average of three experiments. […] Thus, in one embodiment, the invention provides a method for inhibiting VEGF expression in human endothelial cells comprising contacting the cells with one or more peptides of the invention.

[3] = test system: ANG2 gene expression in HUVEC; experiment: ANG2 gene expression in HUVEC, Real-time QPCR; assay type: cell-based, human; settings: 10 uM, average of three experiments
Experimental: FIG. 18 is a graphical representation of data showing modulation of ANG2 gene expression in HUVEC by f-PSA, PSA-P31 and PSA-P3C. To produce the results summarized in FIG. 18, nearly confluent monolayers of HUVEC were treated with 10 uM of f-PSA, PSA-P3L or PSA-P3C; RNA extracted and reverse transcribed. The c-DNA was amplified by Real-time QPCR using specific primer. The results shown are an average of three experiments. […] Accordingly, in one embodiment, the invention provides a method for inhibiting ANG2 expression in human endothelial cells comprising contacting the cells with one or more peptides of the invention.

HUVEC = experiment: Matrigel endothelial tube formation assay; assay type: cell-based, human; settings: for reproducible anti-angiogenic activity: tested at 10 and 100 μM; for anti-angiogenic activity, inhibition of tube formation by HUVEC in Matrigel: 10 uM, 18 hr, FIGS. 14, 19, 20; for inhibitory activity on endothelial tube formation: equi-molar concentrations of f-PSA and T-PSA
Source text: The 3-D model of human PSA, the amino acid sequence of the initial five candidate peptides, and their color-coded location on the exterior of the PSA protein molecule in aqueous solution, are presented in FIG. 8. Five PSA-mimetic peptides with >90% purity were acquired from GeneScript Corporation, Piscataway, N.J., and tested for anti-angiogenic activity against HUVECs in the Matrigel tube formation assay with intact PSA as the control (FIGS. 9 &10). Briefly, to perform these assays, 10^4 HUVEC cells are mixed with the PSA mimetic peptide, and, the mixture placed on top of a solidified, pre-poured Matrigel layer in a flat bottomed well of a multi-chambered plate, and the culture incubated for 16-18 hr to allow time for the endothelial cells to migrate and form tubular structures. At the conclusion of the incubation, digital images were made from the center of each culture to avoid bias, and 3-4 wells for each test condition were imaged. The images are processed under the Analyze 7.0 and “Angioquant” software packages, for imaging and quantification. The total length of tubular structures in the image is determined, and averaged over the replicate cultures. This method of quantification allows for accurate, unbiased measurement of tube lengths. Peptides having each of the peptide sequences shown in FIG. 8 are encompassed within the scope of the invention, including all modifications and substitutions to the sequences as described supra.
The experimental endpoint, measured by digital image analysis, is the total area of the image comprised of endothelial cells (tubes). […] While the reason for the decrease in the amount of anti-angiogenic activity in this figure when the concentration of the peptides is increased from 10 to 100 μM is not clear, it may be related to a dosing response observed in this case. […] FIG. 10 presents the evaluation of anti-angiogenic activity for peptides #1 and #3 relative to the level of inhibition by native PSA, averaged over multiple experiments with different parental populations of HUVEC cells. Across multiple sets of experiments, both peptides inhibited the angiogenic activity of HUVEC by 35-40% relative to native PSA.
FIG. 13 is a graphical representation of data showing anti-angiogenic activity of f-PSA, PSA-P3L, and PSA-P3C by inhibiting tube formation by HUVEC in a Matrigel assay. To produce the results summarized in FIG. 13, a 24-well tissue culture plate was coated with 200 ul/well of Matrigel and incubated for 30 min at 37 C. Approximately 80,000 HUVEC in 0.5 ml of media supplemented with f-PSA or PSA-P3L, PSA-P3C was applied on top of the Matrigel layer and cells were incubated for 18 hr at 37 C foe endothelial cell tube formation. Live cell images (4× magnification) were taken using Nikon Eclipse TE300 inverted microscope system and analyzed using Spot Advance software program. Five images were taken/well. The images were processed further using Analyze 7.0 (AnalyzeDirect, Inc., Overland Park, Kans.) and Angioquant v1.33 to obtain the average tube length for each image. Percent inhibition is expressed in relation to tube length in untreated control cells.

[4] = test system: FLT1 gene expression in HUVEC; experiment: FLT1 gene expression in HUVEC, Real-time QPCR; assay type: cell-based, human; settings: 10 uM, average of three experiments
Experimental: FIG. 15 is a graphical representation of data showing modulation of FLT1 gene expression in HUVEC by f-PSA and PSA-P31. […] To obtain the data summarized in this figure, nearly confluent monolayers of HUVEC were treated with 10 uM of f-PSA or PSA-P3L; RNA extracted and reverse transcribed. The c-DNA was amplified by Real-time QPCR using specific primer. The results shown are average of three experiments.

HUVEC cells = experiment: Expression of angiogenesis/vasculogenesis genes in HUVEC, enzymatically active vs inactive PSA; assay type: cell-based, human
Experimental: as §2

[5] = target: T2, Mu-His-Ser-Ser-Lys-Leu-Gln—AFC (Homo sapiens, UniProt P07288); experiment: Enzymatic activity of isolated PSA, hydrolysis of fluorogenic substrate; assay type: biochemical; settings: for enzymatic activity in the assay: fluorogenic substrate hydrolysis
T2 construct: The 237 amino acid protein (25-261) were used in the studies that include PSA as described herein; from tissue; host or cells: human seminal plasma (f-PSA); human prostate cancer tissue specimens (T-PSA)
Experimental: In particular, enzymatic activity of PSA isolated from human seminal plasma (f-PSA) and from human prostate cancer tissue specimens (Tissue-PSA: T-PSA) was evaluated routinely using a substrate (Mu-His-Ser-Ser-Lys-Leu-Gln—AFC) (SEQ ID NO:102) (Calbiochem) that is highly specific for PSA. […] PSA in the tissue microenvironment (T-PSA) is largely free and enzymatically active. T-PSA levels are lower in advanced prostate cancer than benign prostate, and T-PSA levels correlate with prognosis in prostate cancer, as well as in breast cancer; the higher the T-PSA level, the better the prognosis.
as §1

PC-3M cells [6] = experiment: Proteomic profiling (2D-DIGE, HPLC-MS/MS) of PC-3M cells treated with PSA; assay type: cell-based, human; settings: PSA treatment
Source text: This Example provides an illustration of proteomic profiling of the effect of PSA on human prostate cancer cells. In this regard, a proteomic approach was employed to identify proteins whose expression was modulated in PC-3M cells treated with PSA. […] Proteins from 26 gel spots were identified [FIG. 2]. […] Specificity of PSA modulation of differential expression of these genes in PC-3M cells was validated at the gene level by RT-QPCR [FIG. 3].

PC-3M cells [7] = experiment: Gene expression array and QPCR analysis of PC-3M cells treated with PSA; assay type: cell-based, human
Source text: (§3) PSA purified to homogeneity from human seminal plasma is enzymatically active, and free of contaminating hk2, and complexes with carrier proteins/chaperones (Bindukumar, B., et al., J Chromatogr B Analyt Technol Biomed Life Sci, 2004. 813(1-2): p. 113-20).

PC-3M cells [8] = settings: cited from earlier work
PC-3M xenografts = experiment: Growth of PC-3M xenografts in nude mice; assay type: in vivo; settings: PSA administered in the tumor vicinity; control animals 267 mm^3
Source text: as §3

[9] = PC-3M cells versus LNCaP cells treated with 10 μM PSA

T2 sequence (P07288 25-261): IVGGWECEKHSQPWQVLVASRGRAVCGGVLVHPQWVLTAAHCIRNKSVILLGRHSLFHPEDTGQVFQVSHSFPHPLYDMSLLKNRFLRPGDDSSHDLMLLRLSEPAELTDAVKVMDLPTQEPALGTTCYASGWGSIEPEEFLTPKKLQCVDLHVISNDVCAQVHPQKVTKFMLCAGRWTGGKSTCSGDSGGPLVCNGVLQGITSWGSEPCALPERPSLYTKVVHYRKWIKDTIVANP
T1 sequence (P07288 25-261): as above

For `[Cl-].[Cl-].[Zn+2]` [zinc chloride], the PSA activity inhibited (PSA; 5.0 μM of Zinc) was > 75% and the “inhibition of enzymatic activity of f-PSA and T-PSA” value (PSA; pre-incubation with zinc chloride 5 μM) was “inhibited completely”.

For “Asn Asp Val Cys Ala Gln Val His Pro Gln Lys Val Thr Lys Phe Met Leu Cys Ala (Ac-NDVCAQVHPQKVTKFMLCA-NH2; disulfide 4-18 (inferred)) [PSA-P3C]”, the FAK gene expression [1] was “significantly down-regulates”, the VEGF gene expression [2] was “significantly down-regulate” and the ANG2 gene expression [3] was “significantly inhibited”. For the same molecule, the “inhibition of HUVEC tube formation, cyclic versus linear peptide” value (HUVEC; at certain concentrations, FIG. 11) was “even more efficiently than linear peptide”.

With GRWTGGKSTCS [Peptide #4] the reproducible anti-angiogenic activity (HUVEC) was “did not demonstrate reproducible anti-angiogenic activity”.

In the case of GWGSIEPEEFLTPKKLQ [Peptide #2], the reproducible anti-angiogenic activity (HUVEC) is reported as “did not demonstrate reproducible anti-angiogenic activity”.

With “KNRFLRPGDDSSH [Peptide #1, amino acids 107-119 of PSA]” the “anti-angiogenic activity, inhibition of tube formation by HUVEC in Matrigel” value (“anti-angiogenic activity, inhibition” for short) (HUVEC) was “significantly inhibit” and the “inhibition of tubule formation” value (HUVEC; 100 μM, FIG. 9) was “maximal inhibition”.

For NDVAAQVHPQKVTKFMLAA [PSA-P3L], the FLT1 gene expression [4] was “effectively inhibit”, the FAK gene expression [1] was “not significantly different” and the VEGF gene expression [2] was “not significantly different from control”. For the same molecule, the ANG2 gene expression [3] was “not significantly different from control” and the “anti-angiogenic activity, inhibition” value (HUVEC) was “significantly inhibit”.

In the case of “PSA inactivated by incubation with Zinc^2+: PSA enzymatically inactivated by incubation with Zinc2+ (5.0 μM)”, the “expression of blood vessel development genes FAK, FLT, KDR, TWIST1, Cathepsin D and P-38” value (HUVEC cells) is reported as “equally effective”, the “negative modulation of expression of pro-angiogenic growth factors bFGF and VEGF” value (HUVEC cells) is reported as “equally effective” and the “positive modulation of expression of IFN-γ” value (HUVEC cells) is reported as “equally effective”. The “inhibition of tube formation compared with native PSA” value (HUVEC; over the entire range of PSA concentrations studied) was “as inhibitory of tube formation as was native PSA”.

For “PSA-ACT Complex: f-PSA complexed with serine protease inhibitor alpha 1 anti-chymotrypsin (ACT)”, the “anti-angiogenic activity, inhibition” value (HUVEC) was “significant loss of anti-angiogenic activity” and the “anti-angiogenic activity, inhibition” value (HUVEC; listed as PSA-ACT complexes) was “significantly reduced”.

For SEPCALPERPS [Peptide #5], the reproducible anti-angiogenic activity (HUVEC) was “did not demonstrate reproducible anti-angiogenic activity”.

In the case of “T-PSA: PSA isolated from human prostate cancer tissue specimens”, the “enzymatic activity in the assay” value [5] is reported as “demonstrated enzymatic activity”, the “enzymatic activity relative to f-PSA from seminal plasma” value ([5]; per microgram of protein) is reported as “roughly 50%” and the “inhibitory activity on endothelial tube formation” value (HUVEC) is reported as “equivalent inhibitory activity”.

For “f-PSA: PSA isolated from human seminal plasma, free and enzymatically active; 237 amino acid protein (residues 25-261)”, the “proteins significantly changed (p<0.05) in abundance” value (PC-3M cells [6]) was 41, the “genes down-regulated (gene expression array)” value (PC-3M cells [7]; [9]) was 137 and the “genes up-regulated (gene expression array)” value (PC-3M cells [7]; [9]) was 136. The “expression of IFN-γ and interferon related genes incl. 2,5 oligo-adenylated synthetase-2 (QPCR)” value (PC-3M cells [7]; PC-3M cells, 10 μM PSA) was “up-regulated”, the “expression of uPA, VEGF, cysteine-rich angiogenic inducer-61, EphA2, TGF-β2 (QPCR)” value (PC-3M cells [7]; PC-3M cells, 10 μM PSA) was “significantly down-regulated” and the FLT1 gene expression [4] was “effectively inhibit”. For the same molecule, the “enzymatic activity in the assay” value [5] was “demonstrated enzymatic activity”, the “effect on VEGF and IFN-γ gene expression and protein release” value (PC-3M cells [8]) was “distinctly dose dependent” and the mean tumor volume (PC-3M xenografts) was 13 mm^3. For the same molecule, the FAK gene expression [1] was “significantly down-regulates”, the “expression of blood vessel development genes FAK, FLT, KDR, TWIST1, Cathepsin D and P-38” value (HUVEC cells) was “equally effective” and the “negative modulation of expression of pro-angiogenic growth factors bFGF and VEGF” value (HUVEC cells) was “equally effective”. The “positive modulation of expression of IFN-γ” value (HUVEC cells) was “equally effective”, the VEGF gene expression [2] was “significantly down-regulate” and the ANG2 gene expression [3] was “significantly inhibited”. The “anti-angiogenic activity, inhibition” value (HUVEC) was “significant anti-angiogenic activity”, the “anti-angiogenic activity, inhibition” value (HUVEC; listed as PSA) was “significantly inhibit” and the “inhibitory activity on endothelial tube formation” value (HUVEC) was “equivalent inhibitory activity”.
